In PubChem BioAssay AID330 (DTP/NCI, 2004) one finds T/C data, which are given here for 14 compounds.

In the experiment the test system is P388 leukemia ip, CD2F1 mice, survival T/C. The experiment can be described thus: NCI In Vivo Anticancer Drug Screen. Data for tumor model P388 Leukemia (intraperitoneal) in CD2F1 (CDF1) mice. The conditions noted are these: endpoint: median survival time, higher = longer survival. In outline: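 Mice carrying the transplanted tumor received test compound or vehicle. Survival was recorded in each group, and the value is the treated-group measurement divided by that of the vehicle-treated control group.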

Where [1] appears, read: dose: 12.5 mg/kg/injection, schedule: Q01DX009 (ip), vehicle: saline.
[2] abbreviates: dose: 25.0 mg/kg/injection, schedule: Q01DX009 (ip), vehicle: saline.
Where [3] appears, read: dose: 50.0 mg/kg/injection, schedule: Q01DX009 (ip), vehicle: saline.
The mark [4] stands for this setting: dose: 50.0 mg/kg/injection, schedule: Q01DX005 (ip), vehicle: Klucel (hydroxypropylcellulose) (HPC).
The mark [5] stands for this setting: dose: 100.0 mg/kg/injection, schedule: Q01DX005 (ip), vehicle: Klucel (hydroxypropylcellulose) (HPC).
[6] abbreviates: dose: 200.0 mg/kg/injection, schedule: Q01DX005 (ip), vehicle: Klucel (hydroxypropylcellulose) (HPC).
The mark [7] stands for this setting: dose: 60.0 mg/kg/injection, schedule: Q01DX005 (ip), vehicle: saline with Tween-80.
Setting [8] is: dose: 120.0 mg/kg/injection, schedule: Q01DX005 (ip), vehicle: saline with Tween-80.
The mark [9] stands for this setting: dose: 240.0 mg/kg/injection, schedule: Q01DX005 (ip), vehicle: saline with Tween-80.

Where “and” joins values, the source holds several entries; their conditions need not be identical. Identical values can stand only once. Toxic doses and inconclusive results are not listed.

As for `O=C(O)Cc1cn2cccnc2n1`, the T/C is, setting by setting: (dose: 50.0 mg/kg/injection, schedule: Q04DX002 (ip), vehicle: saline with Tween-80) 115 % of control; (dose: 100.0 mg/kg/injection, schedule: Q04DX002 (ip), vehicle: saline with Tween-80) 99 % of control; (dose: 200.0 mg/kg/injection, schedule: Q04DX002 (ip), vehicle: saline with Tween-80) 96 % of control.
For the compound `CCCCCCCCCCC[CH2][Sn]([CH3])([CH3])[O]C(C)=O`, the T/C is 99 % of control under setting [1], 99 % of control under setting [2] and 94 % of control under setting [3].
Turning to `COC1=C(N)C(=O)c2nc(-c3nc(C=O)c(C)c(-c4ccc(OC)c(OC)c4O)c3N)ccc2C1=O`, the T/C (dose: 0.18 mg/kg/injection, schedule: Q01DX009 (ip), vehicle: DMSO) is 116 % of control; the T/C (dose: 0.3 mg/kg/injection, schedule: Q01DX009 (ip), vehicle: DMSO) is 115 % of control; the T/C (dose: 0.3 mg/kg/injection, schedule: Q01DX009 (ip), vehicle: other) was 115 % of control; the T/C (dose: 0.33 mg/kg/injection, schedule: Q01DX009 (ip), vehicle: DMSO) was 104 % of control; the T/C (dose: 0.55 mg/kg/injection, schedule: Q01DX009 (ip), vehicle: DMSO) was 124 % of control; the T/C (dose: 0.55 mg/kg/injection, schedule: Q01DX009 (ip), vehicle: other) is 124 % of control. In addition, the T/C runs as follows: (dose: 0.62 mg/kg/injection, schedule: Q01DX009 (ip), vehicle: other) 120 % of control; (dose: 0.63 mg/kg/injection, schedule: Q01DX009 (ip), vehicle: DMSO) 110 % of control; (dose: 0.93 mg/kg/injection, schedule: Q01DX009 (ip), vehicle: DMSO) 121 % of control; (dose: 1.05 mg/kg/injection, schedule: Q01DX009 (ip), vehicle: DMSO) 124 % of control; (dose: 1.05 mg/kg/injection, schedule: Q01DX009 (ip), vehicle: other) 124 % of control; (dose: 1.24 mg/kg/injection, schedule: Q01DX009 (ip), vehicle: other) 110 % of control. Further, the T/C runs as follows: (dose: 1.53 mg/kg/injection, schedule: Q01DX009 (ip), vehicle: DMSO) 118 % of control; (dose: 1.55 mg/kg/injection, schedule: Q01DX009 (ip), vehicle: DMSO) 124 % of control; (dose: 1.55 mg/kg/injection, schedule: Q01DX009 (ip), vehicle: other) 99 % of control and 100 % of control and 124 % of control; (dose: 2.05 mg/kg/injection, schedule: Q01DX009 (ip), vehicle: DMSO) 110 % of control; (dose: 2.05 mg/kg/injection, schedule: Q01DX009 (ip), vehicle: other) 110 % of control; (dose: 3.03 mg/kg/injection, schedule: Q01DX009 (ip), vehicle: DMSO) 84 % of control. Moreover, the T/C (dose: 3.1 mg/kg/injection, schedule: Q01DX009 (ip), vehicle: other) was 121 % of control; the T/C (dose: 4.96 mg/kg/injection, schedule: Q01DX009 (ip), vehicle: other) was 92 % of control and 93 % of control; the T/C (dose: 6.03 mg/kg/injection, schedule: Q01DX009 (ip), vehicle: DMSO) is 94 % of control; the T/C (dose: 6.05 mg/kg/injection, schedule: Q01DX009 (ip), vehicle: DMSO) is 124 % of control; the T/C (dose: 6.05 mg/kg/injection, schedule: Q01DX009 (ip), vehicle: other) was 124 % of control; the T/C (dose: 6.2 mg/kg/injection, schedule: Q01DX009 (ip), vehicle: other) was 110 % of control. Also, the T/C (dose: 12.4 mg/kg/injection, schedule: Q01DX009 (ip), vehicle: other) is 56 % of control.
For the compound `O=S(=O)(O)c1c(O)ccc2nc3ccccc3nc12`, the T/C under setting [1] is 99 % of control and 97 % of control; the T/C under setting [2] was 98 % of control and 96 % of control; the T/C under setting [3] was 103 % of control and 104 % of control and 106 % of control; the T/C (dose: 100.0 mg/kg/injection, schedule: Q01DX009 (ip), vehicle: saline) is 98 % of control; the T/C (dose: 200.0 mg/kg/injection, schedule: Q01DX009 (ip), vehicle: saline) is 96 % of control.
Turning to `O/N=C(/C=N/O)SCCSC(/C=N/O)=N/O`, the T/C is 110 % of control under setting [4], 109 % of control under setting [5] and 112 % of control under setting [6].
In the case of `CCCCCCCCCCCCCCCC(=O)NCC(=O)NC1CC(OC2CC(O)(C(C)=O)Cc3c(O)c4c(c(O)c32)C(=O)c2c(OC)cccc2C4=O)OC(C)C1O` (stereo not given), the T/C (dose: 0.75 mg/kg/injection, schedule: Q01DX009 (ip), vehicle: other) was 100 % of control; the T/C (dose: 1.5 mg/kg/injection, schedule: Q01DX009 (ip), vehicle: other) was 103 % of control; the T/C (dose: 3.0 mg/kg/injection, schedule: Q01DX009 (ip), vehicle: other) is 118 % of control.
As for `CSc1c(C)n2c3c(cccc13)CCC2`, the T/C is, setting by setting: under setting [7], 108 % of control; under setting [8], 96 % of control; under setting [9], 100 % of control.
Consider `CN(C)C1=CC(=O)NC(c2ccccc2)C1` (stereo not given), for which the T/C by setting is: under setting [4], 102 % of control; under setting [5], 99 % of control; under setting [6], 99 % of control.
`O=C(CCC(=O)Nc1ccc(Cl)cc1Cl)CC(=O)c1ccco1`: the T/C under setting [7] was 102 % of control, the T/C under setting [8] is 105 % of control and the T/C under setting [9] was 102 % of control.
As for `CC1=CCCCN1C(=O)CC1C=CCS1(=O)=O` (stereo not given), the T/C is 100 % of control (dose: 25.0 mg/kg/injection, schedule: Q01DX005 (ip), vehicle: saline with Tween-80); 103 % of control (dose: 50.0 mg/kg/injection, schedule: Q01DX005 (ip), vehicle: saline with Tween-80); 103 % of control (dose: 100.0 mg/kg/injection, schedule: Q01DX005 (ip), vehicle: saline with Tween-80).
For the compound `C=CCNCCC1CCCCCC1`, under setting [4], the T/C is 102 % of control.
For `C=C(Br)C[C@]1(C(=O)OC)CC(=O)CC[C@H]1c1ccco1`, the T/C by setting is: (dose: 60.0 mg/kg/injection, schedule: Q01DX005 (ip), vehicle: Klucel (hydroxypropylcellulose) (HPC)) 108 % of control; (dose: 120.0 mg/kg/injection, schedule: Q01DX005 (ip), vehicle: Klucel (hydroxypropylcellulose) (HPC)) 107 % of control; (dose: 240.0 mg/kg/injection, schedule: Q01DX005 (ip), vehicle: Klucel (hydroxypropylcellulose) (HPC)) 106 % of control.
On to `CCCCCCCCCCCCCCCCCC(=O)OCC(=O)OCC(=O)[C@]1(O)Cc2c(O)c3c(c(O)c2[C@@H](OC2CC(N)C(O)C(C)O2)C1)C(=O)c1c(OC)cccc1C3=O` (stereo not given in full), for which the T/C is, setting by setting: (dose: 0.39 mg/kg/injection, schedule: Q01DX009 (ip), vehicle: water) 150 % of control; (dose: 0.78 mg/kg/injection, schedule: Q01DX009 (ip), vehicle: water) 157 % of control; (dose: 1.56 mg/kg/injection, schedule: Q01DX009 (ip), vehicle: water) 180 % of control and 194 % of control; (dose: 3.13 mg/kg/injection, schedule: Q01DX009 (ip), vehicle: water) 200 % of control and 203 % of control; (dose: 6.25 mg/kg/injection, schedule: Q01DX009 (ip), vehicle: water) 93 % of control and 98 % of control.
Consider `CCC1OC(OC)C=CC1=O` (stereo not given), for which the T/C was 113 % of control (dose: 12.5 mg/kg/injection, schedule: Q01DX005 (ip), vehicle: Klucel (hydroxypropylcellulose) (HPC)); 101 % of control (dose: 12.5 mg/kg/injection, schedule: Q01DX005 (ip), vehicle: saline); 114 % of control (dose: 25.0 mg/kg/injection, schedule: Q01DX005 (ip), vehicle: Klucel (hydroxypropylcellulose) (HPC)); 108 % of control (dose: 25.0 mg/kg/injection, schedule: Q01DX005 (ip), vehicle: saline); 124 % of control under setting [4]; 98 % of control (dose: 50.0 mg/kg/injection, schedule: Q01DX005 (ip), vehicle: saline). For the same compound, the T/C (dose: 100.0 mg/kg/injection, schedule: Q01DX005 (ip), vehicle: saline) is 104 % of control.
